Source: ChEMBL document CHEMBL4507299, “Data for DCP probe PF-04554878” (2021)

What was measured:
[1] = target: Mitogen-activated protein kinase kinase kinase 2 (Homo sapiens) (UniProt Q9Y2U5)
[2] = target: Serine/threonine-protein kinase haspin (Homo sapiens) (UniProt Q8TF76)
[3] = target: Protein kinase C epsilon type (Homo sapiens) (UniProt Q02156)
[4] = target: Tyrosine-protein kinase SYK (Homo sapiens) (UniProt P43405)
[5] = target: Serine/threonine-protein kinase 36 (Homo sapiens) (UniProt Q9NRP7)
[6] = target: Epidermal growth factor receptor (Homo sapiens) (UniProt P00533)
[7] = target: Mitogen-activated protein kinase kinase kinase kinase 4 (Homo sapiens) (UniProt O95819)
[8] = target: LIM domain kinase 1 (Homo sapiens) (UniProt P53667)
[9] = target: Serine/threonine-protein kinase Nek6 (Homo sapiens) (UniProt Q9HC98)
[10] = target: Macrophage colony-stimulating factor 1 receptor (Homo sapiens) (UniProt P07333)
[11] = target: Casein kinase I isoform alpha-like (Homo sapiens) (UniProt Q8N752)
[12] = target: Tyrosine-protein kinase HCK (Homo sapiens) (UniProt P08631)
[13] = target: Phosphatidylinositol 3-kinase C2 domain-containing subunit gamma (Homo sapiens) (UniProt O75747)
[14] = target: 5-hydroxytryptamine receptor 1B (Homo sapiens) (UniProt P28222); conditions: Compound concentration 10.0 uM
[15] = target: Alpha-2A adrenergic receptor (Homo sapiens) (UniProt P08913); conditions: Compound concentration 10.0 uM
[16] = system: Phosphatidylinositol 4,5-bisphosphate 3-kinase catalytic subunit alpha isoform (Homo sapiens), P42336 [I800L]
[17] = system: Receptor-type tyrosine-protein kinase FLT3 (Homo sapiens), P36888 [UNDEFINED MUTATION]
[18] = target: Muscarinic acetylcholine receptor M3 (Homo sapiens) (UniProt P20309); conditions: Compound concentration 10.0 uM
[19] = target: Tyrosine-protein kinase TXK (Homo sapiens) (UniProt P42681)
[20] = target: Serine/threonine-protein kinase WNK3 (Homo sapiens) (UniProt Q9BYP7)
[21] = target: Serine/threonine-protein kinase 32C (Homo sapiens) (UniProt Q86UX6)
[22] = target: Death-associated protein kinase 1 (Homo sapiens) (UniProt P53355)
[23] = target: Ephrin type-B receptor 3 (Homo sapiens) (UniProt P54753)
[24] = target: Macrophage-stimulating protein receptor (Homo sapiens) (UniProt Q04912)
[25] = target: Testis-specific serine/threonine-protein kinase 1 (Homo sapiens) (UniProt Q9BXA7)
[26] = target: Serine/threonine-protein kinase 33 (Homo sapiens) (UniProt Q9BYT3)
[27] = target: Serine/threonine-protein kinase MRCK alpha (Homo sapiens) (UniProt Q5VT25)
[28] = target: Cyclin-dependent kinase-like 2 (Homo sapiens) (UniProt Q92772)
[29] = target: Eukaryotic translation initiation factor 2-alpha kinase 1 (Homo sapiens) (UniProt Q9BQI3)
[30] = target: Ephrin type-A receptor 1 (Homo sapiens) (UniProt P21709)
[31] = target: Serine/threonine-protein kinase 4 (Homo sapiens) (UniProt Q13043)
[32] = system: Tyrosine-protein kinase ABL1 (Homo sapiens), P00519 [H396P]
[33] = target: Ribosomal protein S6 kinase alpha-4 (Homo sapiens) (UniProt O75676)
[34] = target: G protein-coupled receptor kinase 4 (Homo sapiens) (UniProt P32298)
[35] = target: Cyclin-dependent kinase 16 (Homo sapiens) (UniProt Q00536)
[36] = target: Mitogen-activated protein kinase kinase kinase 15 (Homo sapiens) (UniProt Q6ZN16)
[37] = target: Myosin-IIIa (Homo sapiens) (UniProt Q8NEV4)
[38] = target: Mitogen-activated protein kinase kinase kinase 1 (Homo sapiens) (UniProt Q13233)
[39] = target: Mitogen-activated protein kinase kinase kinase 9 (Homo sapiens, UniProt P80192)
[40] = system: Receptor-type tyrosine-protein kinase FLT3 (Homo sapiens), P36888 [K663Q]
[41] = target: Receptor tyrosine-protein kinase erbB-3 (Homo sapiens) (UniProt P21860)
[42] = target: Alpha-1A adrenergic receptor (Homo sapiens) (UniProt P35348); conditions: Compound concentration 10.0 uM
[43] = target: Serine/threonine-protein kinase MRCK gamma (Homo sapiens) (UniProt Q6DT37)
[44] = target: Serine/threonine-protein kinase mTOR (Homo sapiens) (UniProt P42345)
[45] = target: Serine/threonine-protein kinase MAK (Homo sapiens) (UniProt P20794)
[46] = Compound concentration 100.0 nM
[47] = Compound concentration 1000.0 nM

Chain of Receptor tyrosine-protein kinase erbB-3 (Homo sapiens) (P21860 whole entry): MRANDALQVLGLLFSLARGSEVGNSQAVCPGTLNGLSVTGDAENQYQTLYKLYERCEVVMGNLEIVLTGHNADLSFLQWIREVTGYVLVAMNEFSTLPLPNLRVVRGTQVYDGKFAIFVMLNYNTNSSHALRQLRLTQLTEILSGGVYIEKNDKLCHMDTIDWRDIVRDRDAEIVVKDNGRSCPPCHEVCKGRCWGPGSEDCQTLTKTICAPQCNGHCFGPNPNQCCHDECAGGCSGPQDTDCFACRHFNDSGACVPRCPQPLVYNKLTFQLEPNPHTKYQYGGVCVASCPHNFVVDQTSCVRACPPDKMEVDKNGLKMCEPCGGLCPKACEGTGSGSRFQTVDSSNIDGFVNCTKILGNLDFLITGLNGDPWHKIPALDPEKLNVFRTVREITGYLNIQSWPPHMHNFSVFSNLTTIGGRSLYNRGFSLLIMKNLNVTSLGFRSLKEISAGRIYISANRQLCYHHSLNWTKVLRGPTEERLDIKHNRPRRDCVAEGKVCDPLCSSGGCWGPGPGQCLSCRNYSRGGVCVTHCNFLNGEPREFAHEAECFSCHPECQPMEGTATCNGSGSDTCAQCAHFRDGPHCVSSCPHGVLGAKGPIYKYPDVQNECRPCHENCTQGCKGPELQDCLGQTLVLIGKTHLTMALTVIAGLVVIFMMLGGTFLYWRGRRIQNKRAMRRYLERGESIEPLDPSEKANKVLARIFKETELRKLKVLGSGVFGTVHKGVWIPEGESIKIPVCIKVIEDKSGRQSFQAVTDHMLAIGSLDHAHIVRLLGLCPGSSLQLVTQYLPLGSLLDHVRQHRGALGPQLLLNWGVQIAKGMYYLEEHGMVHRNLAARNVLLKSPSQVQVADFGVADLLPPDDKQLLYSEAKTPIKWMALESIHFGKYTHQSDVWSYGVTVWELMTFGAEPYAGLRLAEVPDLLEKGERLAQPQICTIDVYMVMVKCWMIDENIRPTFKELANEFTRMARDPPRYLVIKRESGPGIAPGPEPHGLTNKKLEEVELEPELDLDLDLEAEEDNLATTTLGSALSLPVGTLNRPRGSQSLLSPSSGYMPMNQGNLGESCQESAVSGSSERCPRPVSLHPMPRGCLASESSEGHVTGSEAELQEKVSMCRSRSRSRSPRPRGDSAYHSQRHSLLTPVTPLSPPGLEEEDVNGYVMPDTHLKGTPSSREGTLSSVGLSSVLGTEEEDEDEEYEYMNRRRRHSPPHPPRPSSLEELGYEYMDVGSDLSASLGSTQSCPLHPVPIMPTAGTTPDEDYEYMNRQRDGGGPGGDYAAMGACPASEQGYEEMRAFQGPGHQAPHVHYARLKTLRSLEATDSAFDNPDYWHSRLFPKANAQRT
Chain of LIM domain kinase 1 (Homo sapiens) (P53667 whole entry, looked up, the tested form may be a part): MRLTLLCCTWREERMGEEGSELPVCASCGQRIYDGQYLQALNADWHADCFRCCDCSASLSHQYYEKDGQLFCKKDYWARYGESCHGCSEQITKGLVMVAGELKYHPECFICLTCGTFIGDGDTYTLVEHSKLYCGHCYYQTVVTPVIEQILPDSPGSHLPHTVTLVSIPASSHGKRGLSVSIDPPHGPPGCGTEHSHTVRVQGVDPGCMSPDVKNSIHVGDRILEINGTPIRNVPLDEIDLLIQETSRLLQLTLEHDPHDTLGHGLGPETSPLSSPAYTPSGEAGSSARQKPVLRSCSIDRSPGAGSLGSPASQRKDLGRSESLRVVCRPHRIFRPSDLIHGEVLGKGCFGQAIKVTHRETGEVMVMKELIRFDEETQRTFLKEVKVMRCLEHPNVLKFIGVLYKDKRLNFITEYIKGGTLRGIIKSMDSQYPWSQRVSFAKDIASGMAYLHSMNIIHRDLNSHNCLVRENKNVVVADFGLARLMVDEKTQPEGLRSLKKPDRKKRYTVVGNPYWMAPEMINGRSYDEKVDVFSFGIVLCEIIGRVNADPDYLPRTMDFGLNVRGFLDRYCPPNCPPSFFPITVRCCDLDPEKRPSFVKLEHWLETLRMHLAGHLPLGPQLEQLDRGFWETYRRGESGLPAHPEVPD
Chain of Mitogen-activated protein kinase kinase kinase 9 (P80192 whole entry, looked up): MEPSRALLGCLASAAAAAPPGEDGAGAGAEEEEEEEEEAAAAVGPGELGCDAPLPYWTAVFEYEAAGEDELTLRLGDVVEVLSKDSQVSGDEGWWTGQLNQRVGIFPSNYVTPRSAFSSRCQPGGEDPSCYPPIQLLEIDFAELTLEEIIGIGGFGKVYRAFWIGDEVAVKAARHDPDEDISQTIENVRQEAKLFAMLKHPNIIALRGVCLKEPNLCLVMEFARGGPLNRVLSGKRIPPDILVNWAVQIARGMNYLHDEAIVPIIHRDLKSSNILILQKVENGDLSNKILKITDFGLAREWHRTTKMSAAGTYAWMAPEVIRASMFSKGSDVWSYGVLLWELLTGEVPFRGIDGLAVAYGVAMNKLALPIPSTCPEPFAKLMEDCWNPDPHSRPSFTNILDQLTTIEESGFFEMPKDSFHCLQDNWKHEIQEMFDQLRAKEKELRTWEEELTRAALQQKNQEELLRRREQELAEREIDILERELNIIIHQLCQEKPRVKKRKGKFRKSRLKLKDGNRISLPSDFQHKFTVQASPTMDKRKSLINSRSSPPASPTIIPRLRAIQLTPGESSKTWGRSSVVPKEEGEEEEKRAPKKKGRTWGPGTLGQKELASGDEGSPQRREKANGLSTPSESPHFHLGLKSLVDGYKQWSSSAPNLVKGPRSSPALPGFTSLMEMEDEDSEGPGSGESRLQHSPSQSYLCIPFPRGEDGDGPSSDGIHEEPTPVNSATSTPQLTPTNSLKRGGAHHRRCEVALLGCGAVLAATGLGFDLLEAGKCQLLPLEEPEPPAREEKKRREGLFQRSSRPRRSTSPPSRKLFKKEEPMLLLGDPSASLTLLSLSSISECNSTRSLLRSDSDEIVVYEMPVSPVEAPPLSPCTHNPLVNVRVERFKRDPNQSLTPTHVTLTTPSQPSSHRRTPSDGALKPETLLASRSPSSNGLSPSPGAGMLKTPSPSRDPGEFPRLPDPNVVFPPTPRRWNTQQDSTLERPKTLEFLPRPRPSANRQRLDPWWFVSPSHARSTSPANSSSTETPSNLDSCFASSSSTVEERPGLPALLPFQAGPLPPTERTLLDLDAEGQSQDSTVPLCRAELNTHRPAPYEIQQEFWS
Chain of Serine/threonine-protein kinase MRCK alpha (Homo sapiens) (Q5VT25 whole entry): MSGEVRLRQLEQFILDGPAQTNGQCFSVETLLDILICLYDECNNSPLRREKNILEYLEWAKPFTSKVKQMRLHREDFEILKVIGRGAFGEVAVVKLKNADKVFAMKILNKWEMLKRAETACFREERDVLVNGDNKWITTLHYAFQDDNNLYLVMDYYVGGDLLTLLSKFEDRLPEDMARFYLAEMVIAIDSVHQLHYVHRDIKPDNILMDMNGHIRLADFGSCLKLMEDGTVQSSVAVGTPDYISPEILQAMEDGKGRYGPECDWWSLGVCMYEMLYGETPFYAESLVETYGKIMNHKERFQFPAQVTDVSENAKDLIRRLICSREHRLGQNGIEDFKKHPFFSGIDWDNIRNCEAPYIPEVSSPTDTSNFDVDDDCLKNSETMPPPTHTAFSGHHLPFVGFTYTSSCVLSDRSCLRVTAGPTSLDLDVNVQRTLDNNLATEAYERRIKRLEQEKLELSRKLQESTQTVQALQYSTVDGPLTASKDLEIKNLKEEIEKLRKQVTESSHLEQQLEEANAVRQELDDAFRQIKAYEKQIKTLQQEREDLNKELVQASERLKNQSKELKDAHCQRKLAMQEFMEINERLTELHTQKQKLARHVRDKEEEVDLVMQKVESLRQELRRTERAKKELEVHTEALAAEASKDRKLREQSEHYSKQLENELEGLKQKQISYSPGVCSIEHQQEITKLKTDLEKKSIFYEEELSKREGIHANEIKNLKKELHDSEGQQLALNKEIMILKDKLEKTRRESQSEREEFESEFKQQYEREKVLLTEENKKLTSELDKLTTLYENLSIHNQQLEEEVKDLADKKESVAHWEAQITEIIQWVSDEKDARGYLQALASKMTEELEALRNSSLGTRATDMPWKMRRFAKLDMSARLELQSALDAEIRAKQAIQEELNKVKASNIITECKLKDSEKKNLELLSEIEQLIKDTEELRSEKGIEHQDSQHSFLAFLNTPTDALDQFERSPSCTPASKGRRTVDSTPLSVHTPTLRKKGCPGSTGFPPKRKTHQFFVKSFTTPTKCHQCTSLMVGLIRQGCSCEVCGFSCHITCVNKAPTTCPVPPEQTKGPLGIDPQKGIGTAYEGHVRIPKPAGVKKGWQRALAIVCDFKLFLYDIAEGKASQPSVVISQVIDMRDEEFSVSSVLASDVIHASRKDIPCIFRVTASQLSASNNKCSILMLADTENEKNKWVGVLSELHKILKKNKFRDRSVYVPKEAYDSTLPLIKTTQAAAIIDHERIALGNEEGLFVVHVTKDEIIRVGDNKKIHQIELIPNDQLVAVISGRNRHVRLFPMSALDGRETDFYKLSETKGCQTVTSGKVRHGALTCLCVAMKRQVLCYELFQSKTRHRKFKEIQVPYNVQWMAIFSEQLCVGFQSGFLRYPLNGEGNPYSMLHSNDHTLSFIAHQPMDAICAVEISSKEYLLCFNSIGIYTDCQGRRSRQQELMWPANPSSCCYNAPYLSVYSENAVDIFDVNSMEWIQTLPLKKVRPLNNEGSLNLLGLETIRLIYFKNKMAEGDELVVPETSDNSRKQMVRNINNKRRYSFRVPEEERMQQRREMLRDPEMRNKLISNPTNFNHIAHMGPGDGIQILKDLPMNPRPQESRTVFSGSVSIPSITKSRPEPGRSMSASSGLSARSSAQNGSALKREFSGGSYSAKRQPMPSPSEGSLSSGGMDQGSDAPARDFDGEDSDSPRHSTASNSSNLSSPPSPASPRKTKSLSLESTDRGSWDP

CNC(=O)c1ccc(Nc2ncc(C(F)(F)F)c(NCc3nccnc3N(C)S(C)(=O)=O)n2)cc1 [DEFACTINIB]
inactive: residual activity [1, 46] 65% | residual activity [2, 46] 100% | residual activity [3, 46] 100% | residual activity [4, 46] 66% | residual activity [5, 46] 89% | residual activity [6, 46] 88% | residual activity [7, 46] 98% | residual activity [8, 46] 100% | residual activity [9, 46] 81% | residual activity [10, 46] 100% | residual activity [11, 46] 77% | residual activity [12, 46] 100% | residual activity [13, 46] 92% | inhibition [14] 12.5% | inhibition [15] 9.61% | residual activity [16, 46] 100% | inhibition [18] 23.8% | residual activity [19, 46] 98% | residual activity [20, 46] 100% | residual activity [21, 46] 100% | residual activity [22, 46] 82% | residual activity [23, 46] 87% | residual activity [24, 46] 100% | residual activity [25, 46] 64% | residual activity [26, 46] 68% | residual activity [27, 46] 98% | residual activity [28, 46] 79% | residual activity [29, 46] 85% | residual activity [30, 46] 98% | residual activity [31, 46] 97% | residual activity [32, 46] 68% | residual activity [33, 46] 85% | residual activity [34, 46] 98% | residual activity [35, 46] 99% | residual activity [36, 46] 95% | residual activity [37, 46] 100% | residual activity [38, 46] 100% | residual activity [41, 46] 93% | inhibition [42] -4.42% | residual activity [43, 46] 80% | residual activity [44, 46] 100% | residual activity [45, 46] 85%
active: residual activity [17, 46] 14% | residual activity [39, 46] 44% | residual activity [40, 46] 21%

CN(c1ccnc(CNc2nc(Nc3ccc4c(c3)CC(=O)N4)ncc2C(F)(F)F)n1)S(C)(=O)=O [PF-00911705]
inactive: residual activity [2, 47] 76% | residual activity [3, 47] 50% | residual activity [5, 47] 87% | residual activity [6, 47] 74% | residual activity [7, 47] 82% | residual activity [8, 47] 97% | residual activity [9, 47] 84% | residual activity [10, 47] 100% | residual activity [11, 47] 81% | residual activity [12, 47] 100% | residual activity [13, 47] 77% | inhibition [14] 5.78% | inhibition [15] 0.4% | residual activity [16, 47] 84% | inhibition [18] -4.64% | residual activity [19, 47] 91% | residual activity [20, 47] 79% | residual activity [21, 47] 76% | residual activity [23, 47] 95% | residual activity [24, 47] 72% | residual activity [25, 47] 56% | residual activity [27, 47] 80% | residual activity [28, 47] 84% | residual activity [29, 47] 87% | residual activity [30, 47] 86% | residual activity [31, 47] 100% | residual activity [33, 47] 81% | residual activity [35, 47] 82% | residual activity [36, 47] 92% | residual activity [37, 47] 100% | residual activity [41, 47] 78% | inhibition [42] -3.55% | residual activity [43, 47] 93% | residual activity [44, 47] 94% | residual activity [45, 47] 100%
active: residual activity [1, 47] 9.7% | residual activity [4, 47] 5.7% | residual activity [17, 47] 0.7% | residual activity [22, 47] 15% | residual activity [26, 47] 15% | residual activity [32, 47] 26% | residual activity [34, 47] 10% | residual activity [38, 47] 49% | residual activity [39, 47] 41% | residual activity [40, 47] 16%
